The values that follow come from patent publication US20130045239A1, “Method for Modulating the Pharmacodynamic Effect of Orally Administered Guanylate Cyclase Receptor Agonists” (Ironwood Pharmaceuticals, Inc., priority 2009, published 2013).

Marks after values point to notes of the source that are not given here. Positions of bridges follow the written chain, without caps; N, C: chain ends. Residues, ends and D or L forms follow the SMILES beside them.

Common to all, as to assay type: in vivo, human
Data set [1] is described as follows: Linaclotide food effect study: plasma levels of linaclotide and its metabolite. The conditions noted are these: for Cmax / Tmax: human, plasma, po, 3000 ug, single oral dose 3000 ug, fasted. The procedure:
(§1) During the Pretreatment Phase of each Crossover Period, subjects were not to receive study drug. On Day 8 of Crossover Period 1 and Day 43 of Crossover Period 2, subjects started the Treatment Phase and were to receive 300 ug linaclotide once daily for a total of 7 days. On Day 14 and 15 of Crossover Period 1, blood was to be drawn to assay for linaclotide and its active metabolite. After the study procedures were completed on Day 15, subjects were discharged home with instructions to follow the same outpatient diet that they followed during the Screening Stage and to return to the Phase 1 unit on Day 35 for Crossover Period 2. On Day 50 of Crossover Period 2, subjects were to receive a single oral dose of 3000 ug linaclotide and were discharged from the Phase 1 unit on Day 51. After subjects received the 3000 ug dose, blood was to be drawn on Day 50 and 51 to assay for linaclotide and linaclotide metabolites.
Blood samples were to be collected at 0 hour (prior to dosing) and 0.5, 1, 2, 3, 4, 6 and 24 hours post dose on Day 14 of Crossover Period 1 and on Day 50 of Crossover Period 2, for determination of the following PK parameters for linaclotide and a metabolite of linaclotide (CCEYCCNPACTGC (SEQ ID NO: 10)) (if systemic levels of linaclotide and or the metabolite are detected): maximum observed plasma concentration (Cmax), time to maximum concentration (Tmax), area under the plasma concentration time curve (AUC0-t), area under the plasma concentration time curve extrapolated to infinity (AUC0-∞), clearance relative to bioavailability (CL/F), apparent volume of distribution (Vd/F), apparent terminal half life (t1/2).

Data set [2] is described as follows: Linaclotide food effect study: 24-hour stool recovery. To be noted: following 7 days of dosing at 300 ug per day, both fed and fasted conditions; predominately as a major linaclotide metabolite. The procedure: As for the 24-hour stool results, approximately 3 percent of a single dose of linaclotide was recovered on average following 7 days of dosing at 300 ug per day under both fed and fasted conditions. The recovery was predominately in the form of a major linaclotide metabolite.

Data set [3] has as its system healthy volunteers. The data set can be described thus: Linaclotide food effect study: pharmacodynamic effect on bowel habits under fed vs fasted conditions. The method, then:
The randomized, open-label, two-period, two-sequence, crossover trial of oral linaclotide in healthy volunteers tested under fasted or fed conditions summarized herein was undertaken to determine if linaclotide is susceptible to a food effect. The study consisted of 4 stages: an 8-day to 15-day Screening Stage, two 15- to 16-day Crossover Periods (1 and 2), and a 21-day Washout Stage which was to occur between Crossover Periods 1 and 2. The doses tested in this study were 300 ug and a 1-day dose of 3000 ug at the end of Crossover Periods 1 and 2.
The study consisted of 4 stages: an 8-day to 15-day Screening Stage which was to take place at home and determine eligibility, two 15- to 16-day stages (Crossover Periods 1 and 2) which were to take place in a Phase 1 unit, and a 21-day Washout Stage which was to take place at home and occur between Crossover Periods 1 and 2. The individual study Stages are detailed below.
Eligible subjects were entered into the Phase 1 unit and were randomized to 1 of 2 Treatment Sequences. Sequence 1 (Fed-Fasted): During Crossover Period 1, linaclotide was to be administered immediately after a high-fat breakfast (the fed condition); during Crossover Period 2, linaclotide was to be administered after a 10-hour fast (the fasted condition). Sequence 2 (Fasted-Fed): During Crossover Period 1, linaclotide was to be administered under the fasted condition; during Crossover Period 2, linaclotide was to be administered under the fed condition.
Crossover Period 1 lasted for 15 days and Crossover Period 2 started on Day 35, immediately after the 21-day Washout Stage, and lasted for 16 days. Subjects were to record their bowel habits in their BHD and ingest their meals at the time determined by their randomization sequence. At a specified time on each day, the information in the BHD was to be reviewed by the site staff to insure appropriate completion.
as §1
Linaclotide was to be administered at the same time each morning with 240 cc (8 oz) of water; food was to be withheld for approximately 4 hr after dosing, and additional water was to be withheld from 1 hour before linaclotide administration until 1 hour after dosing. Under the fed condition, subjects were required to start and complete a high-fat breakfast during the 30 minutes before linaclotide administration. Under the fasted condition, linaclotide was to be administered following an overnight fast.
All meals and meal times were standardized during Crossover Periods 1 and 2 with the total daily calorie, fat, and fiber intake the same for each diet condition (fed and fasted). The daily quantity of these nutrients was based on the “United States Department of Agriculture (USDA) Dietary Recommendations for Americans.” Each subject received approximately 2000 total calories per day.
Linaclotide, 300 ug, oral gelatin capsule. Linaclotide, 3000 ug (5 oral gelatin capsules of 600 ug linaclotide each), single dose.
The primary endpoint was the change from Pretreatment Phase to Treatment Phase for each Crossover Period in stool consistency on the BSFS scale. […]

Where [4] appears, read: 300 ug once daily, Fasted, last 4 days of treatment.
[5] abbreviates: 300 ug once daily, Fasted, over 7 days of treatment.
Where [6] appears, read: 300 ug once daily, Fed, last 4 days of treatment.
The mark [7] stands for this setting: 300 ug once daily, Fed, over 7 days of treatment.
The mark [8] stands for this setting: 300 ug once daily, last 4 days of treatment.
[9] abbreviates: 300 ug once daily, over 7 days of treatment.

With `C[C@@H]1NC(=O)[C@@H]2CCCN2C(=O)[C@H](CC(N)=O)NC(=O)[C@@H]2CSSC[C@H](N)C(=O)N[C@H]3CSSC[C@H](NC1=O)C(=O)N[C@@H]([C@@H](C)O)C(=O)NCC(=O)N[C@H](C(=O)N[C@@H](Cc1ccc(O)cc1)C(=O)O)CSSC[C@H](NC(=O)[C@H](Cc1ccc(O)cc1)NC(=O)[C@H](CCC(=O)O)NC3=O)C(=O)N2` [Linaclotide, Cys Cys Glu Tyr Cys Cys Asn Pro Ala Cys Thr Gly Cys Tyr] (H-CCEYCCNPACTGCY-OH; disulfide 1-6, 2-10, 5-13), in data set [1] (subject 001012), the Cmax stood at 0.735 ng/mL and the Tmax came out at 2 h. Also, in data set [1] (subject 001019), the Tmax amounted to 0.5 h. Moreover, the Cmax in data set [1] (subject 001019 (single measurable sample, at LLOQ)) worked out at 0.212 ng/mL. In data set [2], the “Recovery of a single dose in 24-hour stool, on average” value is “approximately 3%”. In addition, in data set [3] (setting [4]), the “CSBM, Change from Pretreatment Mean (SEM)” value (“CSBM, Change … (SEM)” below) is given as 0.39 (0.293) and the “SBM, Change from Pretreatment Mean (SEM)” value is reported as 0.72 (0.419). Also, the “BSFS Score, Change from Pretreatment Mean (SEM)” value (“BSFS Score, Change … (SEM)” below) in data set [3] (300 ug once daily, Fasted, last 4 days of treatment (Sensitivity Analysis)) was 1.97 (0.174). In addition, in data set [3] (setting [5]), the “BSFS Score, Change … (SEM)” value is 1.84 (0.177); the “CSBM, Change … (SEM)” value is reported as 1.00 (0.443); the “SBM, Change from Pretreatment Mean (SEM)” value is listed as 1.50 (0.487); the “Straining Score, Change from Pretreatment Mean (SEM)” value is −0.17 (0.057). Besides, in data set [3] (setting [6]), the “CSBM, Change … (SEM)” value is reported as 1.00 (0.647) and the “SBM, Change from Pretreatment Mean (SEM)” value is given as 2.28 (0.704). For the same compound, in data set [3] (300 ug once daily, Fed, last 4 days of treatment (Sensitivity Analysis)), the “BSFS Score, Change … (SEM)” value is 2.36 (0.230). Moreover, in data set [3] (setting [7]), the “BSFS Score, Change … (SEM)” value was 2.45 (0.159); the “CSBM, Change … (SEM)” value was 4.06 (1.181); the “SBM, Change from Pretreatment Mean (SEM)” value is reported as 5.94 (1.503); the “Straining Score, Change from Pretreatment Mean (SEM)” value is listed as −0.16 (0.064). In data set [3] (setting [8]), the “CSBM, Difference Mean and 90 percent CI Fed-Fasted Difference” value is 0.61 (−0.49, 1.71); the “SBM, Difference Mean and 90 percent CI Fed-Fasted Difference” value is reported as 1.56 (0.60, 2.51). Further, the “BSFS Score, Difference Mean and 90 percent CI Fed-Fasted Difference” value in data set [3] (300 ug once daily, last 4 days of treatment (Sensitivity Analysis)) is listed as 0.38 (−0.09, 0.86). Moreover, in data set [3] (setting [9]), the “BSFS Score, Difference Mean and 90% CI Fed-Fasted Difference” value is reported as 0.61 (0.25, 0.98)^c; the “CSBM, Difference Mean and 90% CI Fed-Fasted Difference” value is 3.06 (0.90, 5.21); the “SBM, Difference Mean and 90% CI Fed-Fasted Difference” value is on record as 4.44 (2.22, 6.67); the “Straining Score, Difference Mean and 90% CI Fed-Fasted Difference” value was 0.01 (−0.12, 0.14). Further, the “Equivalence of fasted versus fed condition on change from pretreatment BSFS Scores (primary endpoint analysis)” value in data set [3] (300 ug, 7 days of treatment, 90 percent CI against equivalence margins of ±0.6125) is “did not demonstrate equivalence”. Also, the “Equivalence of fed versus fasted condition on BSFS Score (Sensitivity Analysis)” value in data set [3] (300 ug, last 4 days of treatment, 90 percent CI against equivalence margins of ±0.6125) is on record as “did not fall within the equivalence margins”.

For “CCEYCCNPACTGC (Synthetically generated peptide) [linaclotide metabolite, a metabolite of linaclotide]”, in data set [1] (300 ug linaclotide oral for 7 days of treatment, all subjects, no quantifiable levels, limit of detection=2.0 ng/ml), the “Plasma level of linaclotide metabolite” value was less than 2.0 ng/mL. Besides, the Metabolite in plasma result in data set [1] (after linaclotide dosing (300 ug and 3000 ug), any subject) is reported as “No metabolite (SEQ ID NO: 10) was detected”.
